Results reported in patent publication US11976019B2 (Acuitas Therapeutics, Inc., priority 2020, dated 2024).
Marks after values point to notes of the source that are not given here.

What was measured:
[1] = Determination of pKa of formulated lipids (TNS fluorescence assay in lipid nanoparticles); format: physicochemical; details: cationic lipid formulated in LNP (cationic lipid/DSPC/cholesterol/PEG-lipid 50/10/38.5/1.5 mol %); pH of half-maximal TNS fluorescence
Protocol: As described elsewhere, the pKa of formulated cationic lipids is correlated with the effectiveness of LNPs for delivery of nucleic acids (see Jayaraman et al, Angewandte Chemie, International Edition (2012), 51(34), 8529-8533; Semple et al, Nature Biotechnology 28, 172-176 (2010)). The preferred range of pKa is ˜5 to ˜7. The pKa of each cationic lipid was determined in lipid nanoparticles using an assay based on fluorescence of 2-(p-toluidino)-6-napthalene sulfonic acid (TNS). Lipid nanoparticles comprising cationic lipid/DSPC/cholesterol/PEG-lipid (50/10/38.5/1.5 mol %) in PBS at a concentration of 0.4 mM total lipid were prepared using the in-line process as described in Example 1. TNS was prepared as a 100 μM stock solution in distilled water. Vesicles were diluted to 24 μM lipid in 2 mL of buffered solutions containing, 10 mM HEPES, 10 mM IVIES, 10 mM ammonium acetate, 130 mM NaCl, where the pH ranged from 2.5 to 11. An aliquot of the TNS solution was added to give a final concentration of 1 μM and following vortex mixing fluorescence intensity was measured at room temperature in a SLM Aminco Series 2 Luminescence Spectrophotometer using excitation and emission wavelengths of 321 nm and 445 nm. A sigmoidal best fit analysis was applied to the fluorescence data and the pKa was measured as the pH giving rise to half-maximal fluorescence intensity.

[2] = system: luciferase expression in the liver; assay: In vivo luciferase mRNA expression rodent model (liver luciferase after tail vein injection of mRNA-LNP); set-up: species or system mice (C57BL/6 or CD-1); details: liver 4 hours after administration, FLuc mRNA LNP; for Liver Luc @ 1.0 mg/kg: 1.0 mg mRNA/kg
Protocol: Lipid nanoparticles were prepared and tested according to the general procedures described in PCT Pub. Nos. WO 2015/199952 and WO 2017/004143, the full disclosures of which are incorporated herein by reference. Briefly, cationic lipid, DSPC, cholesterol and PEG-lipid were solubilized in ethanol at a molar ratio of about 50:10:38.5:1.5 or about 47.5:10:40.8:1.7. Lipid nanoparticles (LNP) were prepared at a total lipid to mRNA weight ratio of approximately 10:1 to 30:1. The mRNA is diluted to 0.2 mg/mL in 10 to 50 mM citrate or acetate buffer, pH 4. Syringe pumps were used to mix the ethanolic lipid solution with the mRNA aqueous solution at a ratio of about 1:5 to 1:3 (vol/vol) with total flow rates above 15 mL/min. The ethanol was then removed and the external buffer replaced with PBS by dialysis. Finally, the lipid nanoparticles were filtered through a 0.2 μm pore sterile filter. Lipid nanoparticle particle size was approximately 55-95 nm diameter, and in some instances approximately 70-90 nm diameter as determined by quasi-elastic light scattering using a Malvern Zetasizer Nano ZS (Malvern, UK).
Studies were performed in 6-8 week old female C57BL/6 mice (Charles River) or 8-10 week old CD-1 (Harlan) mice (Charles River) according to guidelines established by an institutional animal care committee (ACC) and the Canadian Council on Animal Care (CCAC). Varying doses of mRNA-lipid nanoparticle were systemically administered by tail vein injection and animals euthanized at a specific time point (e.g., 4 hours) post-administration. Liver and spleen were collected in pre-weighed tubes, weights determined, immediately snap frozen in liquid nitrogen and stored at −80° C. until processing for analysis.
For liver, approximately 50 mg was dissected for analyses in a 2 mL FastPrep tubes (MP Biomedicals, Solon Ohio). ¼″ ceramic sphere (MP Biomedicals) is added to each tube and 500 μL of Glo Lysis Buffer—GLB (Promega, Madison Wis.) equilibrated to room temperature is added to liver tissue. Liver tissues were homogenized with the FastPrep24 instrument (MP Biomedicals) at 2×6.0 m/s for 15 seconds. Homogenate was incubated at room temperature for 5 minutes prior to a 1:4 dilution in GLB and assessed using SteadyGlo Luciferase assay system (Promega). Specifically, 50 μL of diluted tissue homogenate was reacted with 50 μL of SteadyGlo substrate, shaken for 10 seconds followed by 5 minute incubation and then quantitated using a CentroXS^3 LB 960 luminometer (Berthold Technologies, Germany). The amount of protein assayed was determined by using the BCA protein assay kit (Pierce, Rockford Ill.). Relative luminescence units (RLU) were then normalized to total μg protein assayed. To convert RLU to ng luciferase a standard curve was generated with QuantiLum Recombinant Luciferase (Promega).
The FLuc mRNA (L-6107 or L-7202) from Trilink Biotechnologies will express a luciferase protein, originally isolated from the firefly, Photinus pyralis. FLuc is commonly used in mammalian cell culture to measure both gene expression and cell viability. It emits bioluminescence in the presence of the substrate, luciferin. This capped and poly-adenylated mRNA was fully substituted with respect to uridine and/or cytidine nucleosides.
Representative compounds of the disclosure shown in Table 2 were formulated using the following molar ratio: 50% cationic lipid/10% distearoylphosphatidylcholine (DSPC)/38.5% Cholesterol/1.5% PEG lipid 2-[2-(ω-methoxy(polyethyleneglycol2000)ethoxy]-N,N-ditetradecylacetamide) or 47.5% cationic lipid/10% DSPC/40.7% Cholesterol/1.8% PEG lipid. Relative activity was determined by measuring luciferase expression in the liver 4 hours following administration via tail vein injection as described in Example 1. The activity was compared at a dose of 1.0 or 0.5 mg mRNA/kg and expressed as ng luciferase/g liver measured 4 hours after administration, as described in Example 1. Compound numbers in Table 2 refer to the compound numbers of Table 1.

[3] = system: luciferase expression in the liver; assay: as above; set-up: species or system mice (C57BL/6 or CD-1); details: liver 4 hours after administration, FLuc mRNA LNP

SMILES	pKa [1]	Liver Luc @ 1.0 mg/kg [2] [ng luc/g liver]	Liver Luc determined at 0.3 mg/kg [3] [ng luc/g liver]	Liver Luc determined at 0.5 mg/kg [2]
CCCCCCCCOC(=O)CCN(CCCCN(C)C)C(CCCCCCCCC(=O)OCC(CCCC)CCCCCC)CCCCCCCCC(=O)OCC(CCCC)CCCCCC (centres unmarked) [Compound I-1]	6.11	24031 ± 4777	–	–
CCCCCCCCOC(=O)CCN(CCCCCN(C)C)C(CCCCCCCCC(=O)OCC(CCCC)CCCCCC)CCCCCCCCC(=O)OCC(CCCC)CCCCCC (centres unmarked) [Compound I-2, bis(2-butyloctyl) 10-((5-(dimethylamino)pentyl)(3-(octyloxy)-3-oxopropyl)amino)nonadecanedioate]	6.67	682 ± 147	122 ± 18	–
CCCCCCCCOC(=O)CCN(CCCCN(C)C)C(CCCCCC(=O)OCC(CCCCCC)CCCCCCCC)CCCCCC(=O)OCC(CCCCCC)CCCCCCCC (centres unmarked) [Compound I-4, bis(2-hexyldecyl) 7-((4-(dimethylamino)butyl)(3-(octyloxy)-3-oxopropyl)amino)tridecanedioate]	6.17	46932 ± 17399	–	–
CCCCCCCCC(CCCCCC)C(=O)OCCCCCCN(CCCCN(C)C)C(CCCCCCCCC(=O)OCC(CCCC)CCCCCC)CCCCCCCCC(=O)OCC(CCCC)CCCCCC (centres unmarked) [Compound I-5, bis(2-butyloctyl) 10-((4-(dimethylamino)butyl)(6-((2-hexyldecanoyl)oxy)hexyl)amino)nonadecanedioate]	6.08	11720 ± 2439	–	–
CCCCCCCCCN(CCCCN(C)C)C(CCCCCCCCC(=O)OCC(CCCC)CCCCCC)CCCCCCCCC(=O)OCC(CCCC)CCCCCC (centres unmarked) [Compound I-6]	6.22	11290 ± 6455	4093 ± 1036	–
CCCCCCC(CCCC)COC(=O)CCCCCCCCC(CCCCCCCCC(=O)OCC(CCCC)CCCCCC)N(CCCN(C)C)C(=O)CCCCC(=O)OC (centres unmarked) [Compound I-14, bis(2-butyloctyl) 10-(N-(3-(dimethylamino)propyl)-6-methoxy-6-oxohexanamido)nonadecanedioate]	6.8	–	–	669 ± 575* *determined at 0.5 mg/kg ng luc/g liver
CCCCCCC(CCCC)COC(=O)CCCCCCCCC(CCCCCCCCC(=O)OCC(CCCC)CCCCCC)N(CCN(C)C)C(=O)CCCCC(=O)OC (centres unmarked) [Compound I-15, bis(2-butyloctyl) 10-(N-(2-(dimethylamino)ethyl)-6-methoxy-6-oxohexanamido)nonadecanedioate]	5.96	21357 ± 15325	–	–
CCCCCCCCC(CCCCCC)COC(=O)CCCCCC(CCCCCC(=O)OCC(CCCCCC)CCCCCCCC)N(CCN(C)C)C(=O)CCCCC(=O)OC (centres unmarked) [Compound I-16, bis(2-hexyldecyl) 7-(N-(2-(dimethylamino)ethyl)-6-methoxy-6-oxohexanamido)tridecanedioate]	6.25	66763 ± 15823	–	–
CCCCCCCCC(CCCCCC)COC(=O)CCCCCC(CCCCCC(=O)OCC(CCCCCC)CCCCCCCC)N(CCCN(C)C)C(=O)CCCCCCC(=O)OC (centres unmarked) [Compound I-17, bis(2-hexyldecyl) 7-(N-(3-(dimethylamino)propyl)-8-methoxy-8-oxooctanamido)tridecanedioate]	6.78	26691 ± 13186	–	–

Now from value to compound, other results behind:

pKa [1]	SMILES	Liver Luc @ 1.0 mg/kg [2] [ng luc/g liver]	Liver Luc determined at 0.3 mg/kg [3] [ng luc/g liver]	Liver Luc determined at 0.5 mg/kg [2]
6.02	CCCCCCCCC(CCCCCC)COC(=O)CCCCCC(CCCCCC(=O)OCC(CCCCCC)CCCCCCCC)N(CCN(C)C)C(=O)CCCCCCC(=O)OC (centres unmarked) [Compound I-18, bis(2-hexyldecyl) 7-(N-(2-(dimethylamino)ethyl)-8-methoxy-8-oxooctanamido)tridecanedioate]	40650 ± 11479	–	–
5.95	CCCCCCCCC(CCCCCC)COC(=O)CCCCCC(CCCCCC(=O)OCC(CCCCCC)CCCCCCCC)N(CCCC(=O)N(CCCCCC)CCCCCC)CCN(C)C (centres unmarked) [Compound I-19, bis(2-hexyldecyl) 7-((4-(dihexylamino)-4-oxobutyl)(2-(dimethylamino)ethyl)amino)tridecanedioate]	32706 ± 4621	–	–
6.48	CCCCCCC(CCCC)COC(=O)CCCCCC(CCCCCC(=O)OCC(CCCC)CCCCCC)N(CCCC(=O)N(CCCCCC)CCCCCC)CCCN(C)C (centres unmarked) [Compound I-20, bis(2-butyloctyl) 7-((4-(dihexylamino)-4-oxobutyl)(3-(dimethylamino)propyl)amino)tridecanedioate]	17095 ± 8181	4140 ± 1117	–
6.4	CCCCCCC(CCCC)COC(=O)CCCCCCCCC(CCCCCCCCC(=O)OCC(CCCC)CCCCCC)N(CCCC(=O)N(CCCCCC)CCCCCC)CCCN(C)C (centres unmarked) [Compound I-21, bis(2-butyloctyl) 10-((4-(dihexylamino)-4-oxobutyl)(3-(dimethylamino)propyl)amino)nonadecanedioate]	20223 ± 5982	7723 ± 1714	–
6.28	CCCCCCCCC(CCCCCC)C(=O)OCCCCCCN(CCCCN(C)C)C(CCCCCCCCC(=O)OCC(CC)CCCC)CCCCCCCCC(=O)OCC(CC)CCCC (centres unmarked) [Compound I-22, bis(2-ethylhexyl) 10-((4-(dimethylamino)butyl)(6-((2-hexyldecanoyl)oxy)hexyl)amino)nonadecanedioate]	17654 ± 8167	5291 ± 1348	–
6.33	CCCCCCCCN(CCCCN(C)C)C(CCCCCCCCC(=O)OCC(CCCC)CCCCCC)CCCCCCCCC(=O)OCC(CCCC)CCCCCC (centres unmarked) [Compound I-23, bis(2-butyloctyl) 10-((4-(dimethylamino)butyl)(octyl)amino)nonadecanedioate]	–	–	553 ± 153* *determined at 0.5 mg/kg ng luc/g liver
